# From patent publication US20110313156A1 (BOEHRINGER INGELHEIM INTERNATIONAL GMBH, priority 2008, published 2011)
# Target: T1, His6-PDK1 (aa 52-556) (Homo sapiens, UniProt O15530)
# T1 construct: 15 μL His6-PDK1 (aa 52-556) 3.33 ng/well); host or cells: baculovirus-infected insect cells
# T1 sequence (O15530 52-556): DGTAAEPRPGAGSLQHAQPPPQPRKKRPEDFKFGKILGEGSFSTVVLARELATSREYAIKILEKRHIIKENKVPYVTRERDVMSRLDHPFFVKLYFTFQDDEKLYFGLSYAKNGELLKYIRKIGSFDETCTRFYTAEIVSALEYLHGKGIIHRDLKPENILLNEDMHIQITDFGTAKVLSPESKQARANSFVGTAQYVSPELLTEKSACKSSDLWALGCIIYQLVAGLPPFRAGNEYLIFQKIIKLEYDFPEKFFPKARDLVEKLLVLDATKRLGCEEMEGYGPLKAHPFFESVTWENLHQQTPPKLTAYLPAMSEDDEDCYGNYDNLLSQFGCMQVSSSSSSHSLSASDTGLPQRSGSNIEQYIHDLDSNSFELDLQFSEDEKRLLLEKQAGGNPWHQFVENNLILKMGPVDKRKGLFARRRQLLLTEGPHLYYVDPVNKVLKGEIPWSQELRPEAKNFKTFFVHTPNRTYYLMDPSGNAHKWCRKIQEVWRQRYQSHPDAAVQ
# Assay: PDK1 kinase assay III (with Tween 20)
# Format: biochemical
# Settings: compound at 10 μM; PDK1 kinase assay III (values without asterisk); read-out: % CTL (residual activity of the enzyme relative to DMSO control)
# How it was run: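 Started with ATP, incubated 90 min at ambient temperature, then stopped with phosphoric acid. Asterisked values come from assay II (24 h or 5 min incubation).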
row,SMILES,remaining activity at 10 µM [%]
1,"CN(C)Cc1ccc(Nc2ncc3cc(C#CCNC(=O)c4nccn(Cc5ccc(F)c(F)c5)c4=O)ccc3n2)cc1 [III-17, 4-(3,4-difluorobenzyl)-N-{3-[2-({4-[(dimethylamino)methyl]phenyl}amino)quinazolin-6-yl]prop-2-yn-1-yl}-3-oxo-3,4-dihydropyrazine-2-carboxamide]",13.7
2,"Cc1c(C(=O)NCC#Cc2ccc3nc(Nc4ccc(CN(C)C)cc4)ncc3c2)c(=O)n(Cc2ccccc2)n1C [III-18, 2-benzyl-N-{3-[2-({4-[(dimethylamino)methyl]phenyl}amino)quinazolin-6-yl]prop-2-yn-1-yl}-1,5-dimethyl-3-oxo-2,3-dihydro-1H-pyrazole-4-carboxamide]",14.7
3,"O=C(NC/C=C/c1cc(OC2CCNCC2)c2nc(Nc3ccccc3)ncc2c1)c1cncn(Cc2ccc(F)c(F)c2)c1=O [III-19, 1-(3,4-difluorobenzyl)-6-oxo-N-{(2E)-3-[2-(phenylamino)-8-(piperidin-4-yloxy)quinazolin-6-yl]prop-2-en-1-yl}-1,6-dihydropyrimidine-5-carboxamide]",17.5
4,"Cc1c(C(=O)NCC#Cc2ccc3nc(Nc4ccc(CN(C)C)cc4)ncc3c2)c(=O)n(Cc2ccc(F)c(F)c2)n1C [III-20, 2-(3,4-difluorobenzyl)-N-{3-[2-({4-[(dimethylamino)methyl]phenyl}amino)-quinazolin-6-yl]prop-2-yn-1-yl}-1,5-dimethyl-3-oxo-2,3-dihydro-1H-pyrazole-4-carboxamide]",13.7
5,"Cn1c(=O)c(C#CCNC(=O)c2cncn(Cc3ccc(F)c(F)c3)c2=O)cc2cnc(Nc3ccccc3)nc21 [III-22, 1-(3,4-difluorobenzyl)-N-{3-[8-methyl-7-oxo-2-(phenylamino)-7,8-dihydropyrido-[2,3-d]pyrimidin-6-yl]prop-2-yn-1-yl}-6-oxo-1,6-dihydropyrimidine-5-carboxamide]",24.9
6,"CN(C)Cc1ccc(Nc2ncc3c(F)c(C#CCNC(=O)c4cncn(Cc5ccc(F)c(F)c5)c4=O)ccc3n2)cc1 [III-24, 1-(3,4-difluorobenzyl)-N-{3-[2-({4-[(dimethylamino)methyl]phenyl}amino)-5-fluoroquinazolin-6-yl]prop-2-yn-1-yl}-6-oxo-1,6-dihydropyrimidine-5-carboxamide]",8.9
7,"Cc1c(C(=O)NCC#Cc2ccc3nc(Nc4ccc(CN(C)C)cc4)ncc3c2F)c(=O)n(Cc2ccc(F)c(F)c2)n1C [III-25, 2-(3,4-difluorobenzyl)-N-{3-[2-({4-[(dimethylamino)methyl]phenyl}amino)-5-fluoroquinazolin-6-yl]prop-2-yn-1-yl}-1,5-dimethyl-3-oxo-2,3-dihydro-1H-pyrazole-4-carboxamide]",11.7
8,"CN1CCC(N(C)c2ccc(Nc3ncc4c(F)c(C#CCNC(=O)c5cncn(Cc6ccc(F)c(F)c6)c5=O)ccc4n3)cc2)CC1 [III-26, 1-(3,4-difluorobenzyl)-N-{3-[5-fluoro-2-({4-[methyl(1-methylpiperidin-4-yl)amino]phenyl}amino)quinazolin-6-yl]prop-2-yn-1-yl}-6-oxo-1,6-dihydropyrimidine-5-carboxamide]",12.4
9,"Cc1c(C(=O)NCC#Cc2ccc3nc(Nc4ccc(N(C)C5CCN(C)CC5)cc4)ncc3c2F)c(=O)n(Cc2ccc(F)c(F)c2)n1C [III-27, 2-(3,4-difluorobenzyl)-N-{3-[5-fluoro-2-({4-[methyl(1-methylpiperidin-4-yl)amino]phenyl}amino)quinazolin-6-yl]prop-2-yn-1-yl}-1,5-dimethyl-3-oxo-2,3-dihydro-1H-pyrazole-4-carboxamide]",12.8
10,"CN1CCC(N(C)c2ccc(Nc3ncc4cc(C#CCNC(=O)c5nccn(Cc6ccc(F)c(F)c6)c5=O)ccc4n3)cc2)CC1 [III-34, 4-(3,4-difluorobenzyl)-N-{3-[2-({4-[methyl(1-methylpiperidin-4-yl)amino]phenyl}amino)quinazolin-6-yl]prop-2-yn-1-yl}-3-oxo-3,4-dihydropyrazine-2-carboxamide]",10.7
11,"CN1CCC(Nc2ccc(Nc3ncc4cc(C#CCNC(=O)c5nccn(Cc6ccc(F)c(F)c6)c5=O)ccc4n3)cc2F)CC1 [III-35, 4-(3,4-difluorobenzyl)-N-{3-[2-({3-fluoro-4-[(1-methylpiperidin-4-yl)amino]-phenyl}amino)quinazolin-6-yl]prop-2-yn-1-yl}-3-oxo-3,4-dihydropyrazine-2-carboxamide]",14.9
12,"CN1CCC(N(C)c2ccc(Nc3ncc4cc(C#CCNC(=O)c5ccnn(Cc6ccc(F)c(F)c6)c5=O)ccc4n3)cc2)CC1 [III-36, 2-(3,4-difluorobenzyl)-N-{3-[2-({4-[methyl(1-methylpiperidin-4-yl)amino]phenyl}amino)quinazolin-6-yl]prop-2-yn-1-yl}-3-oxo-2,3-dihydropyridazine-4-carboxamide]",13.2
13,"CN1CCC(Nc2ccc(Nc3ncc4cc(C#CCNC(=O)c5cc(Cl)nn(Cc6ccc(F)c(F)c6)c5=O)ccc4n3)cc2F)CC1 [III-38, 6-chloro-2(3,4-difluorobenzyl)-N-{3-[2-({3-fluoro-4-[(1-methylpiperidin-4-yl)-amino]phenyl}amino)quinazolin-6-yl]prop-2-yn-1-yl}-3-oxo-2,3-dihydropyridazine-4-carboxamide]",13.2
14,"CCOC(=O)c1ccc(Nc2ncc3cc(C#CCNC(=O)c4cncn(Cc5ccc(F)c(F)c5)c4=O)ccc3n2)cc1 [III-39, ethyl-4-({6-[3-({[1-(3,4-difluorobenzyl)-6-oxo-1,6-dihydropyrimidin-5-yl]carbonyl}amino)prop-1-yn-1-yl]quinazolin-2-yl}amino)benzoate]",19
15,"CNc1ncc2cc(C#CCNC(=O)c3cncn(Cc4ccc(F)c(F)c4)c3=O)ccc2n1 [III-43, 1-(3,4-difluorobenzyl)-N-{3-[2-(methylamino)quinazolin-6-yl]prop-2-yn-1-yl}-6-oxo-1,6-dihydropyrimidine-5-carboxamide]",20.3

# Results, then the compound that gave them:
row,remaining activity at 10 µM [%],SMILES
1,16.4,"Cc1c(C#CCNC(=O)c2cncn(Cc3ccc(F)c(F)c3)c2=O)c(=O)n(C(C)C)c2nc(Nc3ccc(N4CCOCC4)cc3)ncc12 [III-29, 1-(3,4-difluorobenzyl)-N-{3-[5-methyl-2-{[4-(morpholin-4-yl)phenyl]amino}-7-oxo-8-(propane-2-yl)-7,8-dihydropyrido[2,3-d]pyrimidin-6-yl]prop-2-yn-1-yl}-6-oxo-1,6-dihydropyrimidine-5-carboxamide]"
2,11.4,"CN1CCC(N(C)c2ccc(Nc3ncc4cc(C#CCNC(=O)c5cncn(Cc6ccc(F)c(F)c6)c5=O)ccc4n3)cc2)CC1 [III-30, 1-(3,4-difluorobenzyl)-N-{3-[2-({4-[methyl(1-methylpiperidin-4-yl)amino]phenyl}amino)quinazolin-6-yl]prop-2-yn-1-yl}-6-oxo-1,6-dihydropyrimidine-5-carboxamide]"
3,13.1,"Cc1c(C(=O)NCC#Cc2ccc3nc(Nc4ccc(NC5CCN(C)CC5)c(F)c4)ncc3c2)c(=O)n(Cc2ccc(F)c(F)c2)n1C [III-32, 2-(3,4-difluorobenzyl)-N-{3-[2-({3-fluoro-4-[(1-methylpiperidin-4-yl)amino]phenyl}amino)quinazolin-6-yl]prop-2-yn-1-yl}-1,5-dimethyl-3-oxo-2,3-dihydro-1H-pyrazole-4-carboxamide]"
4,22.8,"CN1CCC(Nc2ccc(Nc3ncc4cc(C#CCNC(=O)c5cn(C)c(=O)n(Cc6ccc(F)c(F)c6)c5=O)ccc4n3)cc2F)CC1 [III-33, 3-(3,4-difluorobenzyl)-N-{3-[2-({3-fluoro-4-[(1-methylpiperidin-4-yl)amino]phenyl}amino)quinazolin-6-yl]prop-2-yn-1-yl}-1-methyl-2,4-dioxo-1,2,3,4-tetrahydropyrimidine-5-carboxamide]"
5,13.8,"CN(C)Cc1ccc(Nc2ncc3cc(C#CCNC(=O)c4cc(Cl)nn(Cc5ccc(F)c(F)c5)c4=O)ccc3n2)cc1 [III-37, 6-chloro-2(3,4-difluorobenzyl)-N-{3-[2-({4-[(dimethylamino)methyl]phenyl}-amino)quinazolin-6-yl]prop-2-yn-1-yl}-3-oxo-2,3-dihydropyridazine-4-carboxamide]"
6,13.5,"Cc1c(C(=O)NCC#Cc2ccc3nc(Nc4ccc(N(C)C5CCN(C)CC5)cc4)ncc3c2)c(=O)n(Cc2ccc(F)c(F)c2)n1C [III-40, 2-(3,4-difluorobenzyl)-1,5-dimethyl-N-{3-[2-({4-[methyl(1-methylpiperidin-4-yl)amino]phenyl}amino)quinazolin-6-yl]prop-2-yn-1-yl}-3-oxo-2,3-dihydro-1H-pyrazole-4-carboxamide]"
7,12.7,"CN1CCC(N(C)c2ccc(Nc3ncc4cc(C#CCNC(=O)c5cc(Cl)nn(Cc6ccc(F)c(F)c6)c5=O)ccc4n3)cc2)CC1 [III-41, 6-chloro-2(3,4-difluorobenzyl)-N-{3-[2-({4-[methyl(1-methylpiperidin-4-yl)amino]phenyl}amino)quinazolin-6-yl]prop-2-yn-1-yl}-3-oxo-2,3-dihydropyridazine-4-carboxamide]"
8,14.7,"Nc1ncc2cc(C#CCNC(=O)c3cncn(Cc4ccc(F)c(F)c4)c3=O)ccc2n1 [III-42, N-[3-(2-aminoquinazolin-6-yl)prop-2-yn-1-yl]-1-(3,4-difluorobenzyl)-6-oxo-1,6-dihydropyrimidine-5-carboxamide]"
